{"source": "patent US20250332139A1", "about": "“PS[…] AND THEIR USE FOR TREATING […] AND NE[…] DISORDERS” (Transcend Therapeutics, Inc., priority 2021, published 2025)", "key": {"[1]": {"biological_target": "T1, serotonin transporter (SERT) (Rattus norvegicus, UniProt P31652)", "T1 construct": "from tissue; synaptosomes for uptake and release", "test": "Competitive radioligand binding, [3H]citalopram, rat brain lysates", "experimental": "Radioligands used were: [^3H] Citalopram (PerkinElmer NET1039250UC); [^3H] Nisoxetine (PerkinElmer NET1084250UC); [^3H] WIN35428 (PerkinElmer NET1033250UC). […] Rat brains were dissected and tissue was homogenized in cold lysis buffer, centrifged at 100×g for 2 min and the supernatant was placed in a fresh tube. Supernatant was centrifuged at 13,000×g for 10 min at 4° C. to re-pellet the cell lysate. The pellet was resuspended in fresh wash buffer (50 mM Tris-HCl; 5 mM MgCl2; 5 mM EDTA) and centrifuged a third time. The pellet was then resuspended in wash buffer containing 10% sucrose as a cryoprotectant, divided into aliquots (0.3 mL) and stored at −80° C. A sample of the homogenate was analyzed for protein content using the SIGMA® BCA assay. On the day of the assay, the membrane preparation was thawed, and the pellet resuspended in final assay buffer. […] To each well was added 150 μL membranes, 50 μL of non-specific compound or buffer and 50 μL radioligand solution in buffer. […] Ki was subsequently calculated using the Cheng-Prusoff equation."}, "168 GPCRs [2]": {"biological_target": "T2, 168 GPCRs (Homo sapiens, UniProt P28222)", "T2 construct": "host or cells: PathHunter cell lines", "T2 sequence (P28222 whole entry)": "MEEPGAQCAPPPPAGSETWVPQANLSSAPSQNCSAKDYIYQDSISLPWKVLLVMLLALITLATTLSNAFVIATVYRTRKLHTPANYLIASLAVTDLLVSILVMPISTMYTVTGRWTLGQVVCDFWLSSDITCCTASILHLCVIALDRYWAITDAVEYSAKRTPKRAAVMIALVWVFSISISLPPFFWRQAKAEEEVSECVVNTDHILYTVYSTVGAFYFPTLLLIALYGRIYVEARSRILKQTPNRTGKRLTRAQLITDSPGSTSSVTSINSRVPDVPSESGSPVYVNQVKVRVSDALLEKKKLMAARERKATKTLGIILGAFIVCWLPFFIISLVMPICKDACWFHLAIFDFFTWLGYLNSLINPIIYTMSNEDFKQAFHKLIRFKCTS", "test": "β-arrestin GPCR screen (PathHunter/GPCRmax), agonist mode", "type": "cell-based", "experimental": "(§1) For agonist determination, cells were incubated with sample to induce response. […] Vehicle concentration was 1%."}, "168 GPCRs [3]": {"biological_target": "T3, 168 GPCRs (Homo sapiens, UniProt P48145)", "T3 construct": "host or cells: PathHunter cell lines", "T3 sequence (P48145 whole entry)": "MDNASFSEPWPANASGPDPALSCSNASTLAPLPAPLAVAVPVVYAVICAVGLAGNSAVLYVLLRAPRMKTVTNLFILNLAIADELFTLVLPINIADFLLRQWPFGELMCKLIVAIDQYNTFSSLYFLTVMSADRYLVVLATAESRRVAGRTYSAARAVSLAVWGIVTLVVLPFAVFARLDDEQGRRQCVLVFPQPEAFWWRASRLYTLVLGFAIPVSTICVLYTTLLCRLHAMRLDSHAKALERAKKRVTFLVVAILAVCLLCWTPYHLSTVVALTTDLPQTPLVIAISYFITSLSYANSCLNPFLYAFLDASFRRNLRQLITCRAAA", "test": "β-arrestin GPCR screen (PathHunter/GPCRmax), agonist mode", "type": "cell-based", "conditions": "GPCR NPBWR1; Agonist mode; 10 uM", "experimental": "as §1"}, "168 GPCRs [4]": {"biological_target": "T4, 168 GPCRs (Homo sapiens, UniProt Q96LB1)", "T4 construct": "host or cells: PathHunter cell lines", "test": "β-arrestin GPCR screen (PathHunter/GPCRmax), agonist mode", "type": "cell-based", "conditions": "GPCR MRGPRX2; Agonist mode; 10 uM", "experimental": "as §1"}, "168 GPCRs [5]": {"biological_target": "T5, 168 GPCRs (Homo sapiens, UniProt P51679)", "T5 construct": "host or cells: PathHunter cell lines", "test": "β-arrestin GPCR screen (PathHunter/GPCRmax), agonist mode", "type": "cell-based", "conditions": "CCR4; Agonist; 10 uM", "experimental": "as §1"}, "168 GPCRs [6]": {"biological_target": "T6, 168 GPCRs (Homo sapiens, UniProt P32238)", "T6 construct": "host or cells: PathHunter cell lines", "T6 sequence (P32238 whole entry)": "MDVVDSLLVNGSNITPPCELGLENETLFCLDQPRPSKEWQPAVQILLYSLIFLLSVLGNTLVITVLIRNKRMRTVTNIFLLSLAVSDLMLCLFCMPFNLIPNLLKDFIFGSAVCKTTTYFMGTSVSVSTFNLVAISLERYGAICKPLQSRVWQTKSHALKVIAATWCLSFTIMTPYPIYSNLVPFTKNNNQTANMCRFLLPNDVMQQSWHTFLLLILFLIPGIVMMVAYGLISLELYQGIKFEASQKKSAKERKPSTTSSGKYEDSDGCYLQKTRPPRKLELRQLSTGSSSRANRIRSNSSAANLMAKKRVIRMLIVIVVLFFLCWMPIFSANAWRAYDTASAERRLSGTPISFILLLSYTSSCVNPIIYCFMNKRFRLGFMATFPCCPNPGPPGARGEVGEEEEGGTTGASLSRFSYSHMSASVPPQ", "test": "β-arrestin GPCR screen (PathHunter/GPCRmax), agonist mode", "type": "cell-based", "conditions": "CCKAR; Agonist; 10 uM", "experimental": "as §1"}, "168 GPCRs [7]": {"biological_target": "T7, 168 GPCRs (Homo sapiens, UniProt P23945)", "T7 construct": "host or cells: PathHunter cell lines", "test": "β-arrestin GPCR screen (PathHunter/GPCRmax), agonist mode", "type": "cell-based", "conditions": "GPCR FSHR; Agonist mode; 10 uM", "experimental": "as §1"}, "168 GPCRs [8]": {"biological_target": "T8, 168 GPCRs (Homo sapiens, UniProt P33032)", "T8 construct": "host or cells: PathHunter cell lines", "T8 sequence (P33032 whole entry)": "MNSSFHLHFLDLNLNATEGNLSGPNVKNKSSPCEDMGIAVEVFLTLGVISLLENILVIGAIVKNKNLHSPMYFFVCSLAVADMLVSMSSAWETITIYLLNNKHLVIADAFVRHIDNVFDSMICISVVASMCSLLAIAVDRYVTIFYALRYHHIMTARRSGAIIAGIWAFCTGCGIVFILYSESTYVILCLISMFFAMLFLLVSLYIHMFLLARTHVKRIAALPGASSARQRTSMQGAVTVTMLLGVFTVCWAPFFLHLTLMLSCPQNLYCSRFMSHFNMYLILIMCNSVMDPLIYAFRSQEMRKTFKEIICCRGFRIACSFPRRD", "test": "β-arrestin GPCR screen (PathHunter/GPCRmax), agonist mode", "type": "cell-based", "experimental": "as §1"}, "168 GPCRs [9]": {"biological_target": "T9, 168 GPCRs (Homo sapiens, UniProt P21917)", "T9 construct": "host or cells: PathHunter cell lines", "T9 sequence (P21917 whole entry)": "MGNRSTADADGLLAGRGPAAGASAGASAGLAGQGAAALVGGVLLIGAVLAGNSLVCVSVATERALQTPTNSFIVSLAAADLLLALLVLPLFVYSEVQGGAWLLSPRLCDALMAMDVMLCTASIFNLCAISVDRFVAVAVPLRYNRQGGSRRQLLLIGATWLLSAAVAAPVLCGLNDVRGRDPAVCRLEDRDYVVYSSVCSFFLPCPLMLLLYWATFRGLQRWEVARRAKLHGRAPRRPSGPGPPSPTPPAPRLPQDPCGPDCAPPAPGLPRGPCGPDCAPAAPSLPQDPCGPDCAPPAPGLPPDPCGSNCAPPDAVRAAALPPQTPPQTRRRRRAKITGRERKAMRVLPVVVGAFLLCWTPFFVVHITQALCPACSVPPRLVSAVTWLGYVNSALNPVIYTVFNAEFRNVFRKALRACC", "test": "β-arrestin GPCR screen (PathHunter/GPCRmax), agonist mode", "type": "cell-based", "conditions": "GPCR DRD4; Agonist mode; 10 uM", "experimental": "as §1"}, "168 GPCRs [10]": {"biological_target": "T10, 168 GPCRs (Homo sapiens, UniProt P32247)", "T10 construct": "host or cells: PathHunter cell lines", "test": "β-arrestin GPCR screen (PathHunter/GPCRmax), agonist mode", "type": "cell-based", "conditions": "BRS3; Agonist; 1 uM", "experimental": "as §1"}, "168 GPCRs [11]": {"biological_target": "T11, 168 GPCRs (Homo sapiens, UniProt P25021)", "T11 construct": "host or cells: PathHunter cell lines", "T11 sequence (P25021 whole entry)": "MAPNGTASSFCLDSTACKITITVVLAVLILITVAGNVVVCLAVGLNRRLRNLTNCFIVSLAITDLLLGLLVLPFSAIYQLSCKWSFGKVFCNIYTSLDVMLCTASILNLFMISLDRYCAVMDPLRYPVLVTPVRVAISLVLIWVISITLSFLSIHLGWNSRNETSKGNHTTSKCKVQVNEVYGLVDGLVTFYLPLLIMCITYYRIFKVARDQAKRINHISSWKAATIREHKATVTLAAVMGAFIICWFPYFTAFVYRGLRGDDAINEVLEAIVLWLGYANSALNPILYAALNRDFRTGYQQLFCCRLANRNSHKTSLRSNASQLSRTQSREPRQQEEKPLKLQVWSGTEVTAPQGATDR", "test": "β-arrestin GPCR screen (PathHunter/GPCRmax), agonist mode", "type": "cell-based", "conditions": "GPCR HRH2; Agonist mode; 10 uM", "experimental": "as §1"}, "168 GPCRs [12]": {"biological_target": "T12, 168 GPCRs (Homo sapiens, UniProt P11229)", "T12 construct": "host or cells: PathHunter cell lines", "T12 sequence (P11229 whole entry)": "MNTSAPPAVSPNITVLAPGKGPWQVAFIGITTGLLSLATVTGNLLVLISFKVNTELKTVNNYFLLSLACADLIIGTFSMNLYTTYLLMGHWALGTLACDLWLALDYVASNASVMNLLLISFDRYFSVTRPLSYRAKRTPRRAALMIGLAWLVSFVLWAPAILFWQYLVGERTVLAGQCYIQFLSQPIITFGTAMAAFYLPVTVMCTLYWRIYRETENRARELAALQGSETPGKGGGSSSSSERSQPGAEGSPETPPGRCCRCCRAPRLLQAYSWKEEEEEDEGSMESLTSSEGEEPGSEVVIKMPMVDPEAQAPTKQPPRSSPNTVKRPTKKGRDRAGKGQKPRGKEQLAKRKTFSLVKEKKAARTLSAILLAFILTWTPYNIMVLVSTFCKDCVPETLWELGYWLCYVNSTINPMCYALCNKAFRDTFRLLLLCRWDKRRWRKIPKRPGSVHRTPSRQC", "test": "β-arrestin GPCR screen (PathHunter/GPCRmax), agonist mode", "type": "cell-based", "conditions": "CHRM1, Agonist", "experimental": "as §1"}, "168 GPCRs [13]": {"biological_target": "T13, 168 GPCRs (Homo sapiens, UniProt P25025)", "T13 construct": "host or cells: PathHunter cell lines", "test": "β-arrestin GPCR screen (PathHunter/GPCRmax), agonist mode", "type": "cell-based", "conditions": "GPCR CXCR2; Agonist mode; 10 uM", "experimental": "as §1"}, "168 GPCRs [14]": {"biological_target": "T14, 168 GPCRs (Homo sapiens, UniProt P51677)", "T14 construct": "host or cells: PathHunter cell lines", "test": "β-arrestin GPCR screen (PathHunter/GPCRmax), agonist mode", "type": "cell-based", "conditions": "CCR3; Agonist; 1 uM", "experimental": "as §1"}, "168 GPCRs [15]": {"biological_target": "T15, 168 GPCRs (Homo sapiens, UniProt P51582)", "T15 construct": "host or cells: PathHunter cell lines", "T15 sequence (P51582 whole entry)": "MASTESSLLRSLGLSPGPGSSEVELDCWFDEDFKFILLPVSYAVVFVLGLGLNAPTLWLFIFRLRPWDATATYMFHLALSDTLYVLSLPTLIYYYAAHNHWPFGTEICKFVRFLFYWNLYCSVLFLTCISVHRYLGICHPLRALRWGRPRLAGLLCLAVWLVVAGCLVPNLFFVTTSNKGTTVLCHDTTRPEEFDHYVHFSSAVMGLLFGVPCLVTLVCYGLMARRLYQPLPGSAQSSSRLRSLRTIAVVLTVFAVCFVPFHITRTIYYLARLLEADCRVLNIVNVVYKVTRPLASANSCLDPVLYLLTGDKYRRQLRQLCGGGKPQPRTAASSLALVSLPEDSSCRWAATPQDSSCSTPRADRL", "test": "β-arrestin GPCR screen (PathHunter/GPCRmax), agonist mode", "type": "cell-based", "experimental": "as §1"}, "168 GPCRs [16]": {"biological_target": "T16, 168 GPCRs (Homo sapiens, UniProt P48546)", "T16 construct": "host or cells: PathHunter cell lines", "T16 sequence (P48546 22-466)": "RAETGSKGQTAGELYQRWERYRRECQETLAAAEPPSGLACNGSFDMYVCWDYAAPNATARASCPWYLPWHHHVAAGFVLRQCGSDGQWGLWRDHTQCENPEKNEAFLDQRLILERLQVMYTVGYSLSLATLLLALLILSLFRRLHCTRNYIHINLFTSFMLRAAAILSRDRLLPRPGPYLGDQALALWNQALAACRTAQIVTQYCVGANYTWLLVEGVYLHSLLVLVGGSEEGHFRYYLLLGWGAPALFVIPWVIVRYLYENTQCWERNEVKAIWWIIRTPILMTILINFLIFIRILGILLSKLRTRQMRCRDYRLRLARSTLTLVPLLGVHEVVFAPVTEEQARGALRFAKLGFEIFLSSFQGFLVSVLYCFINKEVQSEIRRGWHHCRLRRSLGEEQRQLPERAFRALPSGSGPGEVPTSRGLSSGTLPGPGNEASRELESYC", "test": "β-arrestin GPCR screen (PathHunter/GPCRmax), agonist mode", "type": "cell-based", "experimental": "as §1"}, "168 GPCRs [17]": {"biological_target": "T17, 168 GPCRs (Homo sapiens, UniProt P25116)", "T17 construct": "host or cells: PathHunter cell lines", "T17 sequence (P25116 22-425)": "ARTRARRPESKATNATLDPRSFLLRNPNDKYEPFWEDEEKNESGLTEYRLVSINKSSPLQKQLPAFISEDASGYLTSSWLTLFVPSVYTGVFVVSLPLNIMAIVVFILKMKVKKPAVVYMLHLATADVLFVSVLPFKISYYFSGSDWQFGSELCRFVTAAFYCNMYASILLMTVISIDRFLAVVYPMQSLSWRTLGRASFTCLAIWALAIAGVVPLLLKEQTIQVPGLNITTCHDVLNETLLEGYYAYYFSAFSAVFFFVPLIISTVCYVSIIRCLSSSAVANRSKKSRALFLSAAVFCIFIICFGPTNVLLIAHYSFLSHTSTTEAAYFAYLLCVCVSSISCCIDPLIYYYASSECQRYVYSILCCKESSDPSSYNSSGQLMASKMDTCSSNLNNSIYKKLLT", "test": "β-arrestin GPCR screen (PathHunter/GPCRmax), agonist mode", "type": "cell-based", "conditions": "F2R; Agonist; 1 uM", "experimental": "as §1"}, "168 GPCRs [18]": {"biological_target": "T18, 168 GPCRs (Homo sapiens, UniProt P30411)", "T18 construct": "host or cells: PathHunter cell lines", "T18 sequence (P30411 whole entry)": "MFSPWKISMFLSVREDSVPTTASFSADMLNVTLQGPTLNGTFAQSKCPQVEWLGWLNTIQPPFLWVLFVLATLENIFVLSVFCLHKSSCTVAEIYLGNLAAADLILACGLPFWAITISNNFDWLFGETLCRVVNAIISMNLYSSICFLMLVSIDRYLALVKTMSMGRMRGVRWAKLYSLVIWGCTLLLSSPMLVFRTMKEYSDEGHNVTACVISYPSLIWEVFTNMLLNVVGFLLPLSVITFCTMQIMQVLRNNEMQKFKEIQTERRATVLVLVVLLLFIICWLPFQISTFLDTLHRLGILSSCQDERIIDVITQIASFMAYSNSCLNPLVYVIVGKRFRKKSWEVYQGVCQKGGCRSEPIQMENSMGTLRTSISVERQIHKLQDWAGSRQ", "test": "β-arrestin GPCR screen (PathHunter/GPCRmax), agonist mode", "type": "cell-based", "conditions": "BDKRB2; Agonist; 10 uM", "experimental": "as §1"}, "168 GPCRs [19]": {"biological_target": "T19, 168 GPCRs (Homo sapiens, UniProt O95136)", "T19 construct": "host or cells: PathHunter cell lines", "T19 sequence (O95136 whole entry)": "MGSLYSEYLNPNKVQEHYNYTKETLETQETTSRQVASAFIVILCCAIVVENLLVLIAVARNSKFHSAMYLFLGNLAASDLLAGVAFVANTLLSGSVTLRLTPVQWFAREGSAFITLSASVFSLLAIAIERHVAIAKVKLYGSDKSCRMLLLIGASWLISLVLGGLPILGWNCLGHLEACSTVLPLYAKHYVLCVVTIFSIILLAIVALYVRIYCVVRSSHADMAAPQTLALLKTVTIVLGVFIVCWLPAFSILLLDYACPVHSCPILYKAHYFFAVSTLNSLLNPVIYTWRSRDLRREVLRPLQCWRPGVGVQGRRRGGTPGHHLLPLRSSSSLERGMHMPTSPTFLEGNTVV", "test": "β-arrestin GPCR screen (PathHunter/GPCRmax), agonist mode", "type": "cell-based", "conditions": "GPCR EDG5; Agonist mode; 10 uM", "experimental": "as §1"}, "168 GPCRs [20]": {"biological_target": "T20, 168 GPCRs (Homo sapiens, UniProt Q96P65)", "T20 construct": "host or cells: PathHunter cell lines", "test": "β-arrestin GPCR screen (PathHunter/GPCRmax), agonist mode", "type": "cell-based", "conditions": "GPR103; Agonist; 1 uM", "experimental": "as §1"}}, "data": [{"smiles": "CNC(C)C(=O)c1ccc2c(c1)OCO2", "note": "(stereo not shown) [methylone, 3,4-methylenedioxy-N-methylcathinone]", "values": [{"measurement": "Ki", "setting": "[1]", "value": 4.15, "unit": "µM"}, {"measurement": "activity at 10 µM", "setting": "168 GPCRs [2]; GPCR HTR1B, Agonist mode, 10 uM", "value": 8.7, "unit": "%"}, {"measurement": "activity at 1 µM", "setting": "168 GPCRs [2]; HTR1B, Agonist, 1 uM", "value": "~3", "unit": "%"}, {"measurement": "activity at 10 µM", "setting": "168 GPCRs [3]", "value": "~-1", "unit": "%"}, {"measurement": "activity at 10 µM", "setting": "168 GPCRs [4]", "value": 0.7, "unit": "%"}, {"measurement": "activity at 10 µM", "setting": "168 GPCRs [5]", "value": -1.4, "unit": "%"}, {"measurement": "activity at 10 µM", "setting": "168 GPCRs [6]", "value": -0.3, "unit": "%"}, {"measurement": "activity at 10 µM", "setting": "168 GPCRs [7]", "value": -2.2, "unit": "%"}, {"measurement": "activity at 10 µM", "setting": "168 GPCRs [8]; GPCR MC5R, Agonist mode, 10 uM", "value": -8.9, "unit": "%"}, {"measurement": "activity at 1 µM", "setting": "168 GPCRs [8]; MC5R, Agonist, 1 uM", "value": "~-7", "unit": "%"}, {"measurement": "activity at 10 µM", "setting": "168 GPCRs [9]", "value": -9.4, "unit": "%"}, {"measurement": "activity at 1 µM", "setting": "168 GPCRs [10]", "value": -4.5, "unit": "%"}, {"measurement": "activity at 10 µM", "setting": "168 GPCRs [11]", "value": -2.8, "unit": "%"}, {"measurement": "activity at 1 µM", "setting": "168 GPCRs [12]; 1 uM", "value": -3.1, "unit": "%"}, {"measurement": "activity at 10 µM", "setting": "168 GPCRs [12]; 10 uM", "value": -8.5, "unit": "%"}, {"measurement": "activity at 10 µM", "setting": "168 GPCRs [13]", "value": -2.6, "unit": "%"}, {"measurement": "activity at 1 µM", "setting": "168 GPCRs [14]", "value": -0.7, "unit": "%"}, {"measurement": "activity at 10 µM", "setting": "168 GPCRs [15]; GPCR P2RY4, Agonist mode, 10 uM", "value": -4.1, "unit": "%"}, {"measurement": "activity at 1 µM", "setting": "168 GPCRs [15]; P2RY4, Agonist, 1 uM", "value": "~-3", "unit": "%"}, {"measurement": "activity at 1 µM", "setting": "168 GPCRs [16]; GIPR, Agonist, 1 uM", "value": "~-2", "unit": "%"}, {"measurement": "activity at 10 µM", "setting": "168 GPCRs [16]; GPCR GIPR, Agonist mode, 10 uM", "value": "~-5", "unit": "%"}, {"measurement": "activity at 1 µM", "setting": "168 GPCRs [17]", "value": -2.5, "unit": "%"}, {"measurement": "activity at 10 µM", "setting": "168 GPCRs [18]", "value": -2.9, "unit": "%"}, {"measurement": "activity at 10 µM", "setting": "168 GPCRs [19]", "value": -3.7, "unit": "%"}, {"measurement": "activity at 1 µM", "setting": "168 GPCRs [20]", "value": "~0", "unit": "%"}]}]}
